Source: US12318361B2, “Methods for treating cardiovascular diseases” (Olatec Therapeutics LLC, priority 2017, dated 2025)

Legend:
[1] = system: IL-1β, IL-6 and IL-1α in hearts of mice; assay: Cytokine levels in heart homogenates after in vivo lipopolysaccharide challenge; design: species or system C57BL/6J mice; conditions: 200 mg/kg IP every 12 h for 5 doses; LPS 5 mg/kg IP, 2 h; vs saline, P<0.05
Experimental: C57BL/6J mice male mice, 22-26 grams (Jackson Laboratories, Bar Harbor, ME) were treated with 200 mg/kg dapansutrile (OLT1177™) in 200 μl of saline or the matching volume of vehicle (saline) intraperitoneally (IP) every 12 hours for 5 doses. One hour after the last dose or saline, the animals were injected IP with 200 μl of lipopolysaccharide (LPS, E. coli, 055: B5, Sigma-Aldrich) at 5 mg/kg and sacrificed after 2 h. Cytokines were measured in hearts homogenates. Tissue homogenates were lysed using RIPA buffer (Sigma-Aldrich) containing a mixture of protease inhibitors (Roche, Indianapolis, IN), centrifuged at 13,000g for 20 minutes at 4° C., and the supernatants were assayed for cytokine levels of IL-1β, IL-6 and IL-1α. The cytokine concentrations were corrected for total protein content.
The dose of LPS that was used in the study covers ischemic inflammation, vascular inflammation and cell-mediated inflammation.

[2] = system: caspase-1; assay: Western blot for caspase-1 (p45 and p10) in J774A.1 cells after LPS/ATP stimulation; format: cell-based, murine
Experimental: J774A.1 murine macrophages cells were stimulated with 1 μg/ml lipopolysaccharide (LPS) for 4 hours and either nigericin (NIG, 10 μM) or ATP (5 mM) was added for 1 hour. OLT1177™ was added to the cells either 30 minutes following LPS stimulation or at the same time as ATP.
A subunit of activated caspase-1 (p10) was reduced in J774A.1 cells in the presence of dapansutrile (OLT).

[3] = system: dogs, occlusive coronary thrombus formation; assay: Thrombus formation in anesthetized dogs (anodal current to left circumflex coronary artery); format: in vivo; conditions: intravenous, about 30 min before anodal current; written in present tense
Experimental: To evaluate the effect of compound of Formula I or II on dynamic thrombus formation in vivo, the following experimental protocol, similar to the method of J. L. Romson et al. (Thromb. Res. 17:841-853, 1980), is performed.
Surgical Preparation and Instrumentation. Briefly, purpose-bred dogs are anesthetized, intubated and ventilated with room air. The heart is exposed by a left thoracotomy in the fifth intercostal space and suspended in a pericardial cradle. A 2-3 cm segment of the left circumflex coronary artery (LCCA) is isolated by blunt dissection. The artery is instrumented from proximal to distal with a flow probe, a stimulation electrode, and a Goldblatt clamp. The flow probe monitors the mean and phasic LCCA blood flow velocities. […]
Experimental Protocol: Dogs are randomized to one of four treatment protocols in which the control group receives saline intravenously and the three drug-treated groups are administered Rho kinase inhibitor compound intravenously. […] The number and frequency of cyclic flow variations (CFV) that precede formation of an occlusive thrombus are recorded. […]

## CS(=O)(=O)CCC#N [OLT1177™, 3-methanesulfonyl-propionitrile]
[1]
  cytokine level of IL-1α in hearts: reduced
  cytokine level of IL-1β in hearts: reduced
  cytokine level of IL-6 in hearts: reduced
[2]
  subunit of activated caspase-1 (p10), Western blot: reduced
[3]
  number and frequency of cyclic flow variations that precede formation of an occlusive thrombus: significantly increases
